Experimental data as given in ChEMBL document CHEMBL5241105, “Natural Products with Potential for Nonhormonal Male Contraception” (J Nat Prod, 2021).

What was measured:
[1] = test system: Meriones unguiculatus; assay: Antifertility activity in gerbils assessed as inhibition of spermatid production at 25 mg/kg, po (reference value: 51.2 %); format: functional; parameters: scale not given: the % may be the effect or the level left
[2] = test system: Oryctolagus cuniculus; assay: Antifertility activity in rabbit assessed as inhibition of spermatid production at 25 mg/kg, po (reference value: 33.9 %); format: functional; parameters: scale not given: the % may be the effect or the level left
[3] = species: Rattus norvegicus; assay: Antifertility activity in albino rat assessed as inhibition of motility (reference value: 30.75 %); format: functional; parameters: scale not given: the % may be the effect or the level left
[4] = test system: Hamster; assay: Antifertility activity in hamster assessed as decrease in egg fertilization percentage at 0.70 to 1.05 mM (reference value: 93.6 +/- 3.12 %); format: functional, Cricetinae; parameters: scale not given: the % may be the effect or the level left; details: dose 0.7-1.05 mM; at 0.7 to 1.05 mM
[5] = species: Mus musculus; assay: Antifertility against male C57BL/6J mouse assessed as infertility; format: functional, organism-based
[6] = Toxicity in mouse assessed as median lethal dose; details: in vivo
[7] = test system: Mus musculus; assay: Antifertility activity in C57BL/6J male mouse assessed as reduction in forward sperm motility at 0.8 mg/kg administered via oral gavage for 4 weeks relative to control; format: functional; parameters: scale not given: the % may be the effect or the level left
[8] = Toxicity in rat assessed as median lethal dose; details: in vivo
[9] = test system: Mus musculus; assay: Antifertility activity in C57BL/6J male mouse assessed as head bend back deformation at 0.8 mg/kg administered via oral gavage for 4 weeks relative to control; format: functional
[10] = species: Homo sapiens; assay: Inhibition of calcium channel (unknown origin) at 2 mg/ml relative to control
[11] = species: Mus musculus; assay: Antifertility activity in mouse assessed as reduction in testicular weight relative to control; format: functional; parameters: scale not given: the % may be the effect or the level left
[12] = species: Rattus norvegicus; assay: Antifertility in male rat assessed as reduction in fertility relative to control; format: functional; parameters: scale not given: the % may be the effect or the level left
[13] = species: Rattus norvegicus; assay: Antifertility activity in Sprague-Dawley rat assessed as reduction in cauda epididymal sperm count (reference value: 41.5 +/- 19.3 10^6/ml); format: functional
[14] = species: Rattus norvegicus; assay: Antifertility activity in Sprague-Dawley rat assessed as motile sperm percentage (reference value: 85.7 +/- 16.9%); format: functional
[15] = Toxicity in oral dosed rat assessed as median lethal dose; format: organism-based; details: in vivo
[16] = species: Rattus norvegicus; assay: Antifertility activity in Sprague-Dawley rat assessed as sperm with normal morphology (reference value: 77.2 +/- 16.9%); format: functional
[17] = test system: Rattus norvegicus; assay: Antifertility activity in male Sprague-Dawley rat assessed as infertility at 100 microg/kg/day measured for 63 to 70 days relative to control; format: functional; details: dose 100 µg/kg/day; time 63-70 day
[18] = test system: Rattus norvegicus; assay: Antifertility activity in rat assessed as decrease in fertility at 10 mg/kg administered daily relative to control; format: functional; parameters: scale not given: the % may be the effect or the level left
[19] = test system: Rattus norvegicus; assay: Antifertility activity in male albino rat assessed as reduction in sertoli cells at 15 mg/kg administered daily relative to control; format: functional; parameters: scale not given: the % may be the effect or the level left
[20] = test system: Rattus norvegicus; assay: Antifertility activity in male albino rat assessed as reduction in spermatids at 15 mg/kg administered daily relative to control; format: functional; parameters: scale not given: the % may be the effect or the level left
[21] = test system: Rattus norvegicus; assay: Antifertility activity in male albino rat assessed as reduction in number of spermatids at 15 mg/kg administered daily relative to control; format: functional; parameters: scale not given: the % may be the effect or the level left

C[C@@H]1C[C@H](O)[C@]2(O)O[C@@H]3C[C@@]4(C=O)[C@@H](CC[C@@H]5[C@@H]4CC[C@]4(C)[C@@H](C6=CC(=O)OC6)CC[C@]54O)C[C@H]3O[C@@H]2O1 [CALOTROPIN]
Activity [1]: 65.2%
Activity [2]: 94%

CCCCCCCCCCCC1=C(O)C(=O)C=C(O)C1=O [EMBELIN]
Activity [3]: 9.5%

O=C(/C=C/C=C/c1ccc2c(c1)OCO2)N1CCCCC1 [PIPERINE]
Activity [4]: 3.89%

CC(C)[C@]12O[C@H]1[C@@H]1O[C@@]13[C@@]1(C)CCC4=C(COC4=O)[C@@H]1C[C@@H]1O[C@@]13C2=O [TRIPTONIDE]
EC50 [5]: 0.9 mg/kg
LD50 [6]: 300 mg/kg
Activity [7]: 100%
LD50 [8]: 980 mg/kg
Activity [9]: 100%

Oc1cc(O)c2c(c1)O[C@H](c1ccc(O)c(O)c1)[C@H](O)C2
inhibition [10]: 53%

CC1(C)CC[C@]2(C(=O)O)CC[C@]3(C)C(=CC[C@@H]4[C@@]5(C)CC[C@H](O)C(C)(C)[C@@H]5CC[C@]43C)[C@@H]2C1 [OLEANOLIC_ACID]
Activity [11]: 60%

CC1(C)C[C@H]2C3=CC[C@@H]4[C@@]5(C)CC[C@H](O[C@@H]6O[C@H](CO[C@@H]7OC[C@@H](O)[C@H](O)[C@H]7O[C@@H]7O[C@H](CO)[C@@H](O)[C@H](O)[C@H]7O)[C@@H](O)[C@H](O)[C@H]6O)C(C)(C)[C@@H]5CC[C@@]4(C)[C@]3(C)C[C@@H](O)[C@@]23C[C@@H]1OC3=O
Activity [12]: 100%

C=C1CC/C=C(/C)CC[C@@H]2[C@@H]1CC2(C)C [CARYOPHYLLENE]
Activity [13]: 20.8 10^6/ml
Activity [14]: 57.4%
LD50 [15]: > 5000 mg/kg
Activity [16]: 36.2%

CC1(C)C[C@H]2C3=CC[C@@H]4[C@@]5(C)CC[C@H](O[C@@H]6O[C@H](CO[C@@H]7OC[C@@H](O)[C@H](O)[C@H]7O[C@@H]7OC[C@@H](O)[C@H](O)[C@H]7O)[C@@H](O)[C@H](O)[C@H]6O)C(C)(C)[C@@H]5CC[C@@]4(C)[C@]3(C)C[C@@H](O)[C@@]23C[C@@H]1OC3=O
Activity [12]: 100%

CC(C)[C@]12O[C@H]1[C@@H]1O[C@]13[C@]1(O[C@H]1C[C@H]1C4=C(CC[C@@]13C)C(=O)OC4)[C@@H]2O [TRIPTOLIDE]
Activity [17]: 100%

C=C(C)[C@@H]1CC[C@]2(C)CC[C@]3(C)[C@H](CC[C@@H]4[C@@]5(C)CC[C@H](O)C(C)(C)[C@@H]5CC[C@]43C)[C@@H]12 [LUPEOL]
Activity [18]: 100%

COC(=O)C1=CO[C@@H](O[C@@H]2O[C@H](CO)[C@@H](O)[C@H](O)[C@H]2O)[C@H]2[C@@H]1C=C[C@@]21C=C([C@H](C)O)C(=O)O1 [PLUMIERIDE]
Activity [19]: 29%
Activity [20]: 59%
Activity [21]: 87%

CC1(C)C[C@H]2C3=CC[C@@H]4[C@@]5(C)CC[C@H](O[C@@H]6O[C@H](CO[C@@H]7OC[C@@H](O)[C@H](O)[C@H]7O[C@@H]7O[C@H](CO)[C@@H](O)[C@H](O)[C@H]7O)[C@@H](O)[C@H](O)[C@H]6O[C@@H]6O[C@H](CO)[C@@H](O)[C@H](O)[C@H]6O)C(C)(C)[C@@H]5CC[C@@]4(C)[C@]3(C)C[C@@H](O)[C@@]23C[C@@H]1OC3=O
Activity [12]: 100%
